From patent US5883287A, “Vinyl sulfide compounds and a process for their preparation” (Lumigen, Inc., priority 1997, dated 1999)

Columns and labels:
Type in all cases: physicochemical
[1] = Stability of dioxetane on silica (TLC versus NMR); conditions: TLC on silica compared with 1H NMR
Method: (c) Synthesis of 4-ethylthio-4-(3-pivaloyloxyphenyl)spiro[1,2-dioxetane-3,2'-tricyclo[3.3.1.1^3,7 ]decane] (2). A small photooxygenation apparatus was charged with 60 mg (0.16 mmol) of the vinyl sulfide, 180 mg of polymer-bound Rose Bengal (U.S. Pat. No. 4,315,998), and 20 mL of CH2 Cl2 dried over MgSO4. The resulting mixture was then cooled to -78° C. with oxygen bubbling through it. After several minutes, the reaction solution was irradiated with a 1000 W sodium lamp for 25 min. […] The sensitizer was filtered off, the solvent evaporated at 0° C. and the material examined by ^1 H NMR.

[2] = First order decay of chemiluminescence (base-induced decay) of hydroxyphenyl alkylthio dioxetane in alkaline buffer with surfactant enhancers; conditions: 0.2M 221 buffer pH 9.6, 0.88 mM Mg+2, ambient temperature
Method: Comparison of Rates of Base-Induced Decay of a Hydroxyphenyl Alkylthio Dioxetane. The first order decay of chemiluminescence of dioxetane 3 in 0.2M 221 buffer, pH 9.6 containing 0.88 mM Mg^+2 and the surfactant enhancers shown below was measured at ambient temperature. Surfactant A is CTAB, B is poly(vinylbenzyltributylphosphonium chloride), C is poly(vinylbenzyltributylphosphonium chloride)-co-poly(vinylbenzyltrioctylphosphonium chloride), D is 1-trioctylphosphoniummethyl-4-tributylphosphoniummethylbenzene dichloride.

[3] = First order decay of chemiluminescence (base-induced decay) of hydroxyphenyl alkoxy or aryloxy dioxetanes in alkaline buffer; conditions: 37° C.; 0.2M 221 buffer, pH 9.6, 0.88 mM Mg+2, 1.0 mg/mL 1-trioctylphosphoniummethyl-4-tributylphosphoniummethylbenzene dichloride
Method: Comparison of Rates of Base-Induced Decay of Hydroxy-phenyl Alkoxy or Aryloxy Dioxetanes. The first order decay of chemiluminescence of dioxetanes 14-19 in 0.2M 2-methyl-2-amino-1-propanol (221) buffer, pH 9.6 containing 0.88 mM Mg^+2 and 1.0 mg/mL of 1-trioctylphosphoniummethyl-4-tributylphosphoniummethylbenzene dichloride was measured at 37° C. in a Turner Designs (Sunnyvale, Calif.) model TD-20e luminometer. The half-lives of decay of chemiluminescence (t1/2) of hydroxy-dioxetanes correlate with the times required to reach the maximum light intensity (Imax) in the alkaline phosphatase-triggered decomposition of the corresponding phosphate-dioxetanes under the same conditions. […] It is expected that, for example, the phosphate derivatives of dioxetanes 14-19 as well as others which can be produced by the process described herein will be useful in alkaline phosphatase-linkedassays known in the art.

Row | Structure (SMILES) | t1/2 of decay of chemiluminescence [3] [min] | further results
1 | CCSC1(c2cccc(OC(=O)C(C)(C)C)c2)OOC12C1CC3CC(C1)CC2C3 (stereo not shown) [Dioxetane 2, 4-Ethylthio-4-(3-pivaloyloxyphenyl)spiro[1,2-dioxetane-3,2'-tricyclo-[3.3.1.1^3,7]decane]] |  | stability on silica [1]: less stable on silica
2 | Oc1cccc(C2(Sc3ccc(F)cc3)OOC23C2CC4CC(C2)CC3C4)c1 (stereo not shown) [Dioxetane 3, 4-(p-Fluorophenylthio)-4-(3-hydroxyphenyl)spiro[1,2-dioxetane-3,2'-tricyclo[3.3.1.1^3,7]decane]] |  | t1/2 of decay of chemiluminescence ([2]; Surfactant A (CTAB) 0.41 g/L): 11.2 min; t1/2 of decay of chemiluminescence ([2]; Surfactant B (poly(vinylbenzyltributylphosphonium chloride)) 0.5 g/L): 4.2 min; t1/2 of decay of chemiluminescence ([2]; Surfactant C (poly(vinylbenzyltributylphosphonium chloride)-co-poly(vinylbenzyltrioctylphosphonium chloride)) 0.5 g/L): 2.9 min; t1/2 of decay of chemiluminescence ([2]; Surfactant D (1-trioctylphosphoniummethyl-4-tributylphosphoniummethylbenzene dichloride) 1.0 g/L): 2.0 min
3 | Oc1cccc(C2(OCC(Cl)(Cl)Cl)OOC23C2CC4CC(C2)CC3C4)c1 (stereo not shown) [Dioxetane 15, 4-(3-Hydroxyphenyl)-4-(2,2,2-trichloroethoxy)spiro[1,2-dibxetane-3,2'-tricyclo[3.3.1.1^3,7]decane]] | 3.7 | 
4 | Oc1cccc(C2(OCC(Cl)Cl)OOC23C2CC4CC(C2)CC3C4)c1 (stereo not shown) [Dioxetane 16, 4-(2,2-Dichloroethoxy)-4-(3-hydroxyphenyl)spiro[1,2-dioxetane-3,2'-tricyclo-[3.3.1.1^3,7]decane]] | 4.1 | 
5 | Oc1cccc(C2(OCC(F)(F)C(F)(F)F)OOC23C2CC4CC(C2)CC3C4)c1 (stereo not shown) [Dioxetane 17, 4-(3-Hydroxyphenyl)-4-(2,2,3,3,3-pentafluoropropoxy)spiro[1,2-dioxetane-3,2'-tricyclo[3.3.1.1^3,7]decane]] | 3.4 | 
6 | Oc1cccc(C2(OCC(F)(F)C(F)(F)C(F)(F)F)OOC23C2CC4CC(C2)CC3C4)c1 (stereo not shown) [Dioxetane 18, 4-(2,2,3,3,4,4,4-Heptafluorobutoxy)-4-(3-hydroxyphenyl)spiro[1,2-dioxetane-3,2'-tricyclo[3.3.1.1^3,7]decane]] | 4.9 | 
7 | Oc1cccc(C2(Oc3c(F)cccc3F)OOC23C2CC4CC(C2)CC3C4)c1 (stereo not shown) [Dioxetane 19, 4-(2',6'-Difluorophenoxy)-4-(3-hydroxyphenyl)spiro[1,2-dioxetane-3,2'-tricyclo[3.3.1.1^3,7]decane]] | 1.76 | 
